{
  "source": "patent US20100119454A1",
  "about": "“Use of the conserved Drosophila NPFR1 system for uncovering interacting genes and pathways important in nociception and stress response” (priority 2008, published 2010)",
  "molecules": {"B1": {"name": "NPF: Drosophila neuropeptide F, sole fly homolog of human NPY; synthesized by Quality Controlled Biochemicals (SEQ ID NO: 5) (peptide)", "chain": "MCQTMRCILVACVALALLAAGCRVEASNSRPPRKNDVNTMADAYKFLQDLDTYYGDRARVRFGKRGSLMDILRNHEMDNINLGKNANNGGEFARGFNEEEIF", "modifications": "Drosophila melanogaster"}},
  "key": {"[1]": {"system": "D. melanogaster post-feeding larvae", "test": "Larval food aversion (migration) assay on soft agar media", "assay_type": "in vivo, Drosophila melanogaster", "details": "for triggering larval wandering: 10% in soft agar paste, post-feeding larvae", "protocol": "Behavioral Assays. The food aversion assay was performed in plastic petri dishes (60 mm in diameter). Each apple juice-agar plate contains a mix (ca. 7 ml) of 1 g of Drosophila agar powder (USB, Swampscott, Mass.) and 6 ml apple-juice solution (0.1 g carbohydrates per ml, equivalent to 20% of frozen concentrate). Other soft agar media were made by mixing 1 g agar powder with 6.5 ml of distilled water or solution containing 10% fructose, 10% lactose, 10% sorbitol or 50 μM capsaicin, respectively. The amount of agar powder may require adjustment depending on agar quality. Twenty-five new post-feeding larvae (96 h AEL) were transferred onto a plate. The larvae were allowed to move freely on the medium, and those that crawled onto the plastic surface became less mobile and eventually formed pupae there. The percent of pupae on agar media was scored after 24 hours. All experiments were performed at room temperature except for the temperature shift assay. In these experiments, larvae and food media were pre-incubated at 30° C. for 60 min before the assay. The larvae were subsequently transferred onto the medium and kept at 30° C. All assays were performed in the dark. At least three separate trials were performed per assay.\nBehavioral assays. The migration assay on soft agar media was performed as described previously (Xu et al., 2008), which is hereby incorporated by reference herein in its entirety. Twenty-five postfeeding larvae (96 h AEL) in one plate were allowed to move freely on the medium, and those that crawled onto the plastic surface became less mobile, and eventually formed pupae there. The percentage of pupae on agar media was scored after 24 hours. The clumping assay was also described in the following, which is hereby incorporated by reference herein in its entirety (Wu et al., 2003). Briefly, 45 mm petri dishes containing solid fructose agar (3% agar in a 10% fructose solution) were coated with a thin layer of yeast paste (0.5 g yeast powder in 10% fructose solution). Thirty larvae per plate were allowed to browse for 30 min, and those in clumps were scored immediately. The social burrowing assay was performed on solid agar media containing apple juice or 10% fructose, as described (Wu et al., 2003). All assays, unless stated otherwise, were performed at room temperature in the dark. At least three separate trials were performed per assay."}, "[2]": {"biological_target": "T1, VR1E600K, a variant of vanilloid receptor TRPV1 (Rattus norvegicus, UniProt O35433, E600K)", "T1 construct": "expressed in transfected cells; host or cells: Drosophila melanogaster larvae, PAIN neurons (pain-gal4 x UAS-VR1E600K / UAS-TRPV1 transgenic line, Marella et al. 2006)", "T1 sequence (O35433 whole entry E600K, the tested form may be a part)": "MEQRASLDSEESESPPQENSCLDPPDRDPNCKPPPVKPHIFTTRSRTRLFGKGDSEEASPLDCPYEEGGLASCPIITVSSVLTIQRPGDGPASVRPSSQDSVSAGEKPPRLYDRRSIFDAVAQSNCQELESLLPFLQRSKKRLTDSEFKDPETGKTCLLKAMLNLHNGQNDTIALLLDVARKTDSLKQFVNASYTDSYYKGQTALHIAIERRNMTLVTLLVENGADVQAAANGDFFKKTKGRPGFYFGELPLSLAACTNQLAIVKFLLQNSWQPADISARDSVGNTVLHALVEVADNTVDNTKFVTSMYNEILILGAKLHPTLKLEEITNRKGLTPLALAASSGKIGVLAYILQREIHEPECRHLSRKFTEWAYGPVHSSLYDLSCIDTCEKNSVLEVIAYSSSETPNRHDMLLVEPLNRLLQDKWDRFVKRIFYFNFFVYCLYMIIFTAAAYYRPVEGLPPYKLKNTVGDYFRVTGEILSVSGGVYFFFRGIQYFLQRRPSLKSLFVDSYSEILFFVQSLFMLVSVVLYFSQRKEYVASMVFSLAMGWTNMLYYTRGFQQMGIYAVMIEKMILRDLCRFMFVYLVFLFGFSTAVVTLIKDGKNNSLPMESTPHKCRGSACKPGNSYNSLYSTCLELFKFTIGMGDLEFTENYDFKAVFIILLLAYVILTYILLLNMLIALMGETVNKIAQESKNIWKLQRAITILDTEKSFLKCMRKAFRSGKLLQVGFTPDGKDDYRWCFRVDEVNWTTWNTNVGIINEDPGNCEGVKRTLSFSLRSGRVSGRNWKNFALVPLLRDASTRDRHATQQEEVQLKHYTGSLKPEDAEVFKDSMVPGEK", "test": "Capsaicin avoidance (migration) of larvae expressing mammalian TRPV1 in PAIN neurons", "assay_type": "in vivo, Drosophila melanogaster", "from_the_text": "To provide further evidence that larval wandering behavior represents an aversive response to fructose, pain-gal4 was used to express a mammalian TRP channel protein VR1E600K, a variant of vanilloid receptor TRPV1 responsive to a spicy substance capsaicin from chili peppers (see the following references, which are incorporated herein by reference in their entireties: Caterina, M. J., et al., 1997; Marella, S., et al., 2006; Tobin, D. M., et al., 2002).\nBehavioral assays. The migration assay on soft agar media was performed as described previously (Xu et al., 2008), which is hereby incorporated by reference herein in its entirety. […] The percentage of pupae on agar media was scored after 24 hours. […]"}, "[3]": {"biological_target": "T1, VR1E600K, a variant of vanilloid receptor TRPV1", "test": "Two-choice medium preference assay (capsaicin vs capsaicin-free media)", "assay_type": "in vivo", "protocol": "The two-choice medium preference assay was performed on a 2.5% agar plate. The apple juice or water agar paste is the same as described above. 10 μl of 5 mM capsaicin stock solution (in 100% ethanol) or 10 μl ethanol was added to each ml of the agar media. 30 larvae were washed extensively to remove any food particles. They were then placed between the two piles of capsaicin and capsaicin-free media (1 cm in diameter), which are located 4 mm apart. The number of larvae in each medium was recorded after 20 min. A preference index was defined as the fraction of larvae choosing the capsaicin-free medium, minus the fraction of larvae choosing the capsaicin medium."}, "[4]": {"biological_target": "T2, rat TRPV1 (Rattus norvegicus, UniProt O35433, E600K)", "T2 construct": "expressed in transfected cells; host or cells: HEK293 cells, transient transfection with pcDNA3.1D (Invitrogen) carrying TRPV1 (E600K) cDNA", "T2 sequence (O35433 whole entry E600K)": "as the sequence (O35433 whole entry E600K, the tested form may be a part) above", "test": "Calcium imaging of HEK 293 cells (Fluo-4/Fura-red), capsaicin-induced Ca2+ influx", "assay_type": "cell-based", "protocol": "Transfection and Calcium imaging of HEK 293 cells. HEK293 cells were maintained under standard conditions (37° C., 5% CO2) in Dulbecco's Modified Eagle's Medium (Mediatech) supplemented with 10% fetal bovine serum, penicillin and streptomycin. pcDNA3.1D directional expression system (Invitrogen) was used to clone and express rat TRPV1 and fly NPFR1 cDNA in HEK293 cells. TRPV1 cDNA was PCR amplified from TRPV1 (E600K) sequence (Marella et al., 2006), using the following primers: 5′ […] 3′ (SEQ ID NO: 11) and 5′ […] 3′ (SEQ ID NO: 12). NPFR1 cDNA was PCR amplified from an NPFR1 cDNA plasmid(34), using two primers: 5′ […] 3′ (SEQ ID NO: 13) and 5′ […] 3′ (SEQ ID NO: 14). HEK293 cells were cultured on 8-well polyornithine-coated chambered coverglasses (Nunc) for 24 hrs before transfection. A suspension of 200 μl of water containing 0.4 μg plasmid DNA and 0.8 μl of Lipofectamine 2000 (Invitrogen) was used for transfection. The amounts of TRPV1 and NPFR1 cNDA used were 20 ng and 200 ng, respectively. pcDNA3.1 vector DNA was supplemented, when necessary, to ensure the equal amount of total DNA per transfection.\nCalcium imaging was performed between 36-42 hours post transfection at 23° C. Cells were loaded with 1 μM Fluo-4 and 2 μM Fura-red (Invitrogen) for 90 min in Hanks' balanced salt solution (HBSS; Gibco), washed once with HBSS, and imaged using a Zeiss Axiovert 200M scope equipped with a Zeiss LSM 510 Meta laser scanning module. Dyes were excited at 488 nm with argon laser. Emission fluorescence was filtered by a BP505-530 and an LP585 filter. Images were collected for 300 s upon capsaicin stimulation at 1 frame s^−1, and analyzed with the SOARS analysis. NPF was synthesized by Quality Controlled Biochemicals. NPF and cyclic nucleotide analogs (Sigma) were pre-incubated at 23° C. with cells for 20-25 min before adding capsaicin."}, "[5]": {"system": "pain-expressing sensory neurons", "test": "Calcium imaging (yellow cameleon 2.1, SOARS analysis) of larval sensory neurons", "assay_type": "cell-based, Drosophila melanogaster", "details": "pain^gal4/+; UAS-YC 2.1/+, 96 h AEL, lactose-lactose alternate, ventral sensory neurons in T2 and T3", "protocol": "Imaging. The live images of second instar larvae (ca. 48 h AEL) expressing DsRed driven by pain-gal4 were obtained using a Leica epifluorescence microscope. The immunofluorescence images were taken by a Zeiss LSM 510 Meta confocal microscope and processed by Zeiss AIM Image Examiner. […] Larvae were dissected in a modified HL6 solution containing lactose (HL6-Lac, 23.7 mM NaCl, 15 mM MgCl2, 24.8 mM KCl, 0.5 mM CaCl2, 10 mM NaHCO3, 5 mM HEPES, 240 mM lactose)^38. An incision was made along the dorsal midline, and the gut and the fat bodies were removed. The tissue was placed ventral side up in HL6 solution on a silicon-coated coverslip (Sylgard 184, DOW Corning Corp., Midland, Mich.) in a Dvorak-Stotler perfusion chamber (Lucas Highland, Chantilly, Va.). A minute amount of cyanoacrylate glue (Nexaband S/C, Abott Laboratories, North Chicago, Ill.) was applied to the edge of the cuticle using a glass micropipette to immobilize the tissue. The imaging was performed on a Zeiss LSM 510 Meta confocal microscope (Carl Zeiss Microimaging, Thornwood, N.Y.). YC2.1 was excited at 458 nm with an argon laser. Emission fluorescence was filtered by a BP 475-525 filter (cyan) and an LP 530 filter (yellow). 256×256 pixel images for ratiometric analysis were collected at 1 frame s^−1. The tissue was perfused at a rate of 8.3 ul s^−1 with HL6-Lac, periodically alternating with a modified HL6 solution containing fructose (HL6-Fru, with 240 mM fructose substituting 240 mM lactose in HL6-Lac), switching at 120-second intervals for a total of 800 seconds. The images were subsequently analyzed with the SOARS method (Statistical Optimization for the Analysis of Ratiometric Signals, Version 1.1) as described in the following references, which are hereby incorporated by reference herein in their entireties (Fan, X., et al., 2007; Broder, J., et al., 2007), using Matlab (MathWorks, Natick, Mass.; also see http://www.engr.uga.edu/research/groups/atslab/Software.html).\nIn brief, SOARS is a multivariate statistical optimization procedure performed on both CFP and YFP channels of the FRET imaging data. The analysis results in a set of eigenimages and associated time courses that represent the part of the imaged signal displaying statistically significant spatial correlation and temporal anti-correlation (e.g., the aspects of the signal that are demonstrable due to FRET). These eigenimages represent the spatial distribution of anti-correlated FRET changes in response to sugar stimulation. Because the stimulus was periodic, the time courses were tested for the presence of stimulus-locked activity. To quantify the significance of the periodic part of the FRET response, p-values for a periodic (sinusoidal) response at the stimulus frequency were calculated using multitaper harmonic analysis (a common method for the detection of sinusoids in noisy data) as described in the following references, which are hereby incorporated herein by reference in their entirety. (Thomson 1982; Mitra et al., 1999, Sornborger et al., 2003; Mitra et al., 2008).\nIn vivo calcium imaging. […] To quantify the significance of anti-correlated FRET response to fructose stimulation, p-values were calculated for a periodic (sinusoidal) response at the stimulus frequency using multitaper harmonic analysis, a common method for the detection of sinusoids in noisy data (Thomson, 1982), which is hereby incorporated by reference herein in its entirety."}, "[6]": {"details": "HEK 293 cells, cyclic nucleotide analog pre-incubated 20-25 min before capsaicin"}},
  "data": [
    {"molecule": "COc1cc(CNC(=O)CCCC/C=C/C(C)C)ccc1O", "note": "[capsaicin]", "values": [
      {"measurement": "response of wild type larvae to capsaicin", "setting": "[1]; wild type Drosophila larvae (no TRPV1)", "result": "neither attractive nor aversive response"},
      {"measurement": "migratory response to capsaicin agar paste", "setting": "[2]; 400 nM capsaicin, larvae expressing UAS-TRPV1 driven by pain-gal4", "result": "migrate away"},
      {"measurement": "response to capsaicin-agar medium, control larvae", "setting": "[2]; 25 μM capsaicin, control larvae (e.g., VR1E600K alone, no driver)", "result": "no aversive response"},
      {"measurement": "migratory response to capsaicin-agar medium", "setting": "[2]; 25 μM capsaicin, post-feeding larvae expressing VR1E600K driven by pain-gal4", "result": "migrated away"},
      {"measurement": "medium preference in two-choice assay, post-feeding larvae", "setting": "[3]; post-feeding VR1E600K-expressing larvae", "result": "preference for capsaicin-free media"},
      {"measurement": "medium preference in two-choice assay, feeding larvae", "setting": "[3]; younger feeding VR1E600K-expressing larvae (74 h AEL)", "result": "no such preference"},
      {"measurement": "time to significant Ca2+ influx in response to capsaicin", "setting": "[4]; HEK293 cells transfected with TRPV1 cDNA alone, 400 nM capsaicin", "result": "≤ 30", "unit": "s"}
    ]},
    {"molecule": "Nc1ncnc2c1nc(Br)n2[C@@H]1O[C@@H]2COP(=O)(O)O[C@H]2[C@H]1O", "note": "[8-Br-cAMP]", "values": [
      {"measurement": "effect on TRPV1-mediated Ca2+ influx", "setting": "[4]; [6]", "result": "significantly increased"}
    ]},
    {"molecule": "OC[C@@H](O)[C@@H](O)[C@H](O)[C@@H](O)CO", "note": "[sorbitol]", "values": [
      {"measurement": "triggering larval wandering", "setting": "[1]", "result": "not effective"}
    ]},
    {"molecule": "OC[C@H]1O[C@@H](O[C@H]2[C@H](O)[C@@H](O)C(O)O[C@@H]2CO)[C@H](O)[C@@H](O)[C@H]1O", "note": "(stereo partly shown) [lactose]", "values": [
      {"measurement": "triggering larval wandering", "setting": "[1]", "result": "not effective"},
      {"measurement": "Anti-correlated signal", "setting": "[5]", "result": "No"}
    ]},
    {"molecule": "Nc1nc2c(nc(Br)n2[C@@H]2O[C@@H]3COP(=O)(O)O[C@H]3[C@H]2O)c(=O)[nH]1", "note": "[8-Br-cGMP]", "values": [
      {"measurement": "effect on NPFR1 suppression of TRPV1", "setting": "[4]; HEK 293 cells expressing NPFR1 and TRPV1, in the presence of 8-Br-cGMP", "result": "significantly enhanced"},
      {"measurement": "effect on TRPV1 activity", "setting": "[4]; [6]", "result": "slightly reduced"}
    ]},
    {"molecule": "OC[C@H]1O[C@@](CO)(O[C@H]2O[C@H](CO)[C@@H](O)[C@H](O)[C@H]2O)[C@@H](O)[C@@H]1O", "note": "[sucrose]", "values": [
      {"measurement": "response of wild type larvae to sugar media", "setting": "[1]; 10% sugar media, wild type larvae (FIG. 2B)", "result": "aversive"}
    ]},
    {"molecule": "B1", "values": [
      {"measurement": "effect of NPF on response to capsaicin", "setting": "[4]; HEK293 cells co-transfected with NPFR1 and TRPV1 cDNAs, in the presence of NPF (1 mM per FIG. 15 legend), 400 nM capsaicin", "result": "drastically attenuated and delayed responses"},
      {"measurement": "effect of NPF on TRPV1 activity", "setting": "[4]; HEK293 cells transfected with TRPV1 cDNA alone", "result": "mild reduction"}
    ]}
  ]
}
